# Columns and labels:
# [1] = Metabolism in human liver microsomes; type: in vitro ADME; settings: 1 μM substrate, NADPH
# Description: (§1) Following the protocols described by Charman et al.,[28]1 was incubated at 37 °C with human, rat, and rhesus monkey liver microsomes. For the determination of intrinsic clearance, the substrate concentration was 1 μM and the protein concentration was 0.4 mg/mL; for qualitative metabolite identification studies, the substrate and protein concentrations were 10 μM and 1 mg/mL, respectively. The reaction was initiated by the addition of an NADPH-regenerating buffer system, and the samples were incubated for up to 60 (for Clint determination) or 180 min (for additional metabolite identification). Samples without the test compound and without NADPH were also incubated and used as controls. The reaction was quenched by protein precipitation with the addition of an equal volume of ice-cold acetonitrile solution (containing diazepam as an internal standard), followed by vortexing and centrifugation for 3 min at 10000 rpm. The supernatant was removed and analyzed by LC/MS. LC/MS analysis was conducted using a Waters Micromass Xevo G2 QTOF MS coupled to a Waters Acquity UPLC. For metabolite identification, a Supelco Ascentis Express Amide column (50 × 2.1 mm, 2.7 μm) was used with an acetonitrile–water gradient (containing 0.05% formic acid), a flow rate of 0.4 mL/min, a gradient cycle time of 6 min, and an injection volume of 5 μL. MS analysis was conducted using positive mode electrospray ionization under MSE acquisition mode, which allows simultaneous acquisition of MS spectra at low and high collision energies. The identity of putative metabolites was confirmed by the accurate mass and a comparison of the retention times and MS/MS fragmentation patterns with authentic metabolites where available. For metabolite quantitation, the method described below for the analysis of plasma samples was used.
# [2] = Metabolism in rhesus monkey liver microsomes; type: in vitro ADME; settings: rhesus monkey, liver microsomes; 1 μM substrate, 0.4 mg/mL microsomal protein, NADPH, 37 °C, 60 min; average of three replicates; read-out: CLint
# Description: as §1
# [3] = Metabolism in rat liver microsomes; type: in vitro ADME; settings: 1 μM substrate, NADPH
# Description: as §1
# [4] = tested on: P. vivax liver-stage parasites; assay: P. vivax liver-stage in vitro assay, prophylactic mode; type: cell-based, Plasmodium vivax; settings: 20 μM, two independent runs, threshold for activity 75% inhibition
# Description: (§2) Compound 1 and its metabolites were tested in both prophylactic and radical cure modes for activity against P. vivax liver-stage parasites.[16],[17] In the prophylactic assay, compounds are added the day after sporozoite invasion into hepatocytes in order to characterize the compound activity against established liver forms with a parasitophorous vacuole membrane (as opposed to activity on preinvasion sporozoites) and prior to complete maturation of hypnozoites into drug-insensitive dormant forms, which appear at about 5 days postinvasion.[18] In the radical cure assay, compounds are added at day 5 postinfection to characterize activity against late-stage schizonts and mature PI4K inhibitor-insensitive hypnozoites.[19] In these experiments, the threshold for activity is 75% inhibition. […] Similarly, as previously described,[20] 10 μM concentrations of 1 and its metabolites were also tested for activity against P. cynomolgi schizont (large forms) and hypnozoite (small forms) liver-stage parasites cultured in rhesus monkey hepatocytes. In these experiments, the threshold for activity is 50% inhibition.
# (§3) Compounds were prepared as 20 mM stock solutions in DMSO and tested in an eight-point semilog (1/3) dilution series from 20 μM in 384-well assay plates in both prophylactic and radical cure mode against P. vivax liver-stage parasites as previously described.[16] Following ethical approval from the Institutional Ethics Committee of the Thai Ministry of Public Health, the Ethical Review Committee of Faculty of Tropical Medicine, Mahidol University (TMEC 11-008 and 14-016), the Oxford Tropical Medicine Ethical Committee, Oxford University, England (OxTREC 17-11 and 40–14), and the Cambodian National Ethics Committee for Health Research (101NECHR), isolates of P. vivax infected blood were collected from patent volunteers in Tak province, Thailandm and Mondulkiri province, Cambodia. Samples were collected by venipuncture into heparin tubes prior to replacement of patient serum with nonimmune AB human serum and feeding to laboratory-reared Anopheles dirus cracens or An. dirus A mosquitoes via water-jacket artificial membrane feeders or the Hemotek insect feeding system (Hemotek, Blackburn, UK) set to maintain the bloodmeal temperature at 37 °C. […] Cryopreserved human hepatocytes (BioIVT, Baltimore, Maryland, USA) were thawed into InVitroGro CP Medium (BioIVT), quantified for viability by trypan blue dye exclusion, diluted to 800–1000 live cells per microliter, and 18000 live cells were plated into each well of a collagen-coated 384-well plate (Greiner, Monroe, NC, USA) by a 16-channel pipet (Finnpipette, Thermo Fisher Scientific, Waltham, MA). […]
# [5] = tested on: P. vivax liver-stage parasites; assay: P. vivax liver-stage in vitro assay, radical cure mode; type: cell-based, Plasmodium vivax; settings: 20 μM, two independent runs, threshold for activity 75% inhibition
# Description: as §2, §3
# [6] = tested on: P. falciparum (NF54 clone); assay: Blood stage activity against cultured P. falciparum; type: cell-based, Plasmodium falciparum; settings: concentration up to 15 μM
# P. cynomolgi hypnozoites = tested on: P. cynomolgi hypnozoites; parameters: method as in PMID 4091527; settings: cited from earlier work
# [7] = 0.4 mg/mL protein, relative to initial substrate concentration
smiles,measurement,setting,value
"CCN(CC)CCN(CCN(CC)CC)c1cc(OC)c(OC)cc1Br [Compound 1, 4-(2-bromo-4,5-dimethoxyphenyl)-1,1,7,7-tetraethyldiethylenetriamine]",average substrate depletion over a 60 min incubation,[1]; [7],<10%
same,microsomal CLint at 1 μM,"[1]; human, liver microsomes, 0.4 mg/mL microsomal protein, 37 °C, 60 min, average of three replicates, read-out: CLint",< 3 µL/min/mg
same,microsomal CLint at 1 μM,[2],23 ± 4.7 µL/min/mg
same,average substrate depletion over a 60 min incubation,[3]; [7],~90%
same,microsomal CLint at 1 μM,"[3]; rat, liver microsomes, 0.4 mg/mL microsomal protein, 37 °C, 60 min, average of three replicates, read-out: CLint",100 ± 2.6 µL/min/mg
same,activity against schizonts or hypnozoites,[4],no activity
same,activity against schizonts or hypnozoites,[5],no activity
same,blood stage activity,[6],no blood stage activity
same,efficacy against hypnozoites relative to primaquine,P. cynomolgi hypnozoites,about 1 order of magnitude less effective than primaquine
same,hemolysis,P. cynomolgi hypnozoites,produced no hemolysis
same,toxicity relative to primaquine,P. cynomolgi hypnozoites,1 order of magnitude less toxic

# — article PMC9016807, “Metabolic, Pharmacokinetic, and Activity Profile of the Liver Stage Antimalarial (RC-12)” (ACS Omega, 2022)
